Results published in patent publication US20220132847A1, “CINNOLINIUM COMPOUNDS FOR USE IN A METHOD OF CONTROLLING UNWANTED PLANT GROWTH” (SYNGENTA CROP PROTECTION AG, priority 2019, published 2022).

Columns and labels:
Test in all cases: Post-emergence efficacy, glasshouse
Format in all cases: in vivo
[1] = system: Amaranthus palmeri (AMAPA); conditions: evaluated after 13 days, 100=total damage to plant, 0=no damage to plant; for pest or weed control at 500 g/ha / pest or weed control at 1000 g/ha: Amaranthus palmeri, post-emergence, 312 h, read-out: Control of weed species after post-emergence application, AMAPA; for pest or weed control at 500 g/ha: Application Rate 500 g/Ha; for pest or weed control at 1000 g/ha / Control of weed species after post-emergence application, AMAPA: Application Rate 1000 g/Ha
Procedure: (§1) Seeds of a variety of test species were sown in standard soil in pots. After cultivation for 14 days (post-emergence) under controlled conditions in a glasshouse (at 24/16° C., day/night; 14 hours light; 65% humidity), the plants were sprayed with an aqueous spray solution derived from the dissolution of the technical active ingredient formula (I) in a small amount of acetone and a special solvent and emulsifier mixture referred to as IF50 (11.12% Emulsogen EL360™+44.44% N-methylpyrrolidone+44.44% Dowanol DPM glycol ether), to create a 50 g/l solution which was then diluted to required concentration using 0.25% or 1% Empicol ESC70 (Sodium lauryl ether sulphate)+1% ammonium sulphate in water as diluent.
(§2) The test plants were then grown in a glasshouse under controlled conditions (at 24/16° C., day/night; 14 hours light; 65% humidity) and watered twice daily. After 13 days the test was evaluated (100=total damage to plant; 0=no damage to plant).
(§3) Ipomoea hederacea (IPOHE), Euphorbia heterophylla (EPHHL), Chenopodium album (CHEAL), Amaranthus palmeri (AMAPA), Lolium perenne (LOLPE), Digitaria sanguinalis (DIGSA), Eleusine indica (ELEIN), Echinochloa crus-galli (ECHCG), Setaria faberi (SETFA)

[2] = system: Chenopodium album (CHEAL); conditions: evaluated after 13 days, 100=total damage to plant, 0=no damage to plant; for pest or weed control at 500 g/ha / pest or weed control at 1000 g/ha: Chenopodium album, post-emergence, 312 h, read-out: Control of weed species after post-emergence application, CHEAL; for pest or weed control at 500 g/ha: Application Rate 500 g/Ha; for pest or weed control at 1000 g/ha / Control of weed species after post-emergence application, CHEAL: Application Rate 1000 g/Ha
Procedure: as §1, §2, §3

[3] = system: Digitaria sanguinalis (DIGSA); conditions: evaluated after 13 days, 100=total damage to plant, 0=no damage to plant; for pest or weed control at 500 g/ha / pest or weed control at 1000 g/ha: Digitaria sanguinalis, post-emergence, 312 h, read-out: Control of weed species after post-emergence application, DIGSA; for pest or weed control at 500 g/ha: Application Rate 500 g/Ha; for pest or weed control at 1000 g/ha / Control of weed species after post-emergence application, DIGSA: Application Rate 1000 g/Ha
Procedure: as §1, §2, §3

[4] = system: Echinochloa crus-galli (ECHCG); conditions: evaluated after 13 days, 100=total damage to plant, 0=no damage to plant; for pest or weed control at 500 g/ha / pest or weed control at 1000 g/ha: Echinochloa crus-galli, post-emergence, 312 h, read-out: Control of weed species after post-emergence application, ECHCG; for pest or weed control at 500 g/ha: Application Rate 500 g/Ha; for pest or weed control at 1000 g/ha / Control of weed species after post-emergence application, ECHCG: Application Rate 1000 g/Ha
Procedure: as §1, §2, §3

Eleusine indica (ELEIN) = conditions: evaluated after 13 days, 100=total damage to plant, 0=no damage to plant; for pest or weed control at 500 g/ha / pest or weed control at 1000 g/ha: Eleusine indica, post-emergence, 312 h, read-out: Control of weed species after post-emergence application, ELEIN; for pest or weed control at 500 g/ha: Application Rate 500 g/Ha; for pest or weed control at 1000 g/ha / Control of weed species after post-emergence application, ELEIN: Application Rate 1000 g/Ha
Procedure: as §1, §2, §3

[5] = system: Euphorbia heterophylla (EPHHL); conditions: evaluated after 13 days, 100=total damage to plant, 0=no damage to plant; for pest or weed control at 500 g/ha / pest or weed control at 1000 g/ha: Euphorbia heterophylla, post-emergence, 312 h, read-out: Control of weed species after post-emergence application, EPHHL; for pest or weed control at 500 g/ha: Application Rate 500 g/Ha; for pest or weed control at 1000 g/ha / Control of weed species after post-emergence application, EPHHL: Application Rate 1000 g/Ha
Procedure: as §1, §2, §3

[6] = system: Ipomoea hederacea (IPOHE); conditions: evaluated after 13 days, 100=total damage to plant, 0=no damage to plant; for pest or weed control at 500 g/ha / pest or weed control at 1000 g/ha: Ipomoea hederacea, post-emergence, 312 h, read-out: Control of weed species after post-emergence application, IPOHE; for pest or weed control at 500 g/ha: Application Rate 500 g/Ha; for pest or weed control at 1000 g/ha / Control of weed species after post-emergence application, IPOHE: Application Rate 1000 g/Ha
Procedure: as §1, §2, §3

Lolium perenne (LOLPE) = conditions: evaluated after 13 days, 100=total damage to plant, 0=no damage to plant; for pest or weed control at 500 g/ha / pest or weed control at 1000 g/ha: Lolium perenne, post-emergence, 312 h, read-out: Control of weed species after post-emergence application, LOLPE; for pest or weed control at 500 g/ha: Application Rate 500 g/Ha; for pest or weed control at 1000 g/ha / Control of weed species after post-emergence application, LOLPE: Application Rate 1000 g/Ha
Procedure: as §1, §2, §3

Setaria faberi (SETFA) = conditions: evaluated after 13 days, 100=total damage to plant, 0=no damage to plant; for pest or weed control at 500 g/ha / pest or weed control at 1000 g/ha: Setaria faberi, post-emergence, 312 h, read-out: Control of weed species after post-emergence application, SETFA; for pest or weed control at 500 g/ha: Application Rate 500 g/Ha; for pest or weed control at 1000 g/ha / Control of weed species after post-emergence application, SETFA: Application Rate 1000 g/Ha
Procedure: as §1, §2, §3

| Molecule | pest or weed control at 1000 g/ha [1] [%] | pest or weed control at 1000 g/ha [2] [%] | pest or weed control at 1000 g/ha [3] [%] | pest or weed control at 1000 g/ha [4] [%] | pest or weed control at 1000 g/ha (Eleusine indica (ELEIN)) [%] | pest or weed control at 1000 g/ha [5] [%] | pest or weed control at 1000 g/ha [6] [%] | pest or weed control at 1000 g/ha (Lolium perenne (LOLPE)) [%] | pest or weed control at 1000 g/ha (Setaria faberi (SETFA)) [%] | also measured |
| --- | --- | --- | --- | --- | --- | --- | --- | --- | --- | --- |
| CCOP(=O)(O)c1c[n+](CCO)nc2ccccc12 [Compound A69] |  |  |  |  |  |  |  |  |  | pest or weed control at 500 g/ha [1]: 100%; pest or weed control at 500 g/ha [2]: 90%; pest or weed control at 500 g/ha [3]: 100%; pest or weed control at 500 g/ha [4]: 70%; pest or weed control at 500 g/ha (Eleusine indica (ELEIN)): 90%; pest or weed control at 500 g/ha [5]: 100%; pest or weed control at 500 g/ha [6]: 90%; pest or weed control at 500 g/ha (Lolium perenne (LOLPE)): 40%; pest or weed control at 500 g/ha (Setaria faberi (SETFA)): 90% |
| C[n+]1cc(P(C)(=O)O)c2ccccc2n1 [Compound A31] | 100 | 80 | 100 | 60 | 100 | 100 | 90 | 70 | 90 |  |
| ethoxy-[(2-methylcinnolin-2-ium-4-yl)methyl]phosphinic acid [Compound A51] |  |  |  |  |  |  |  |  |  | Control of weed species after post-emergence application, AMAPA [1]: 90; Control of weed species after post-emergence application, CHEAL [2]: 60; Control of weed species after post-emergence application, DIGSA [3]: 90; Control of weed species after post-emergence application, ECHCG [4]: 70; Control of weed species after post-emergence application, ELEIN (Eleusine indica (ELEIN)): 80; Control of weed species after post-emergence application, EPHHL [5]: 90; Control of weed species after post-emergence application, IPOHE [6]: 60; Control of weed species after post-emergence application, LOLPE (Lolium perenne (LOLPE)): 20; Control of weed species after post-emergence application, SETFA (Setaria faberi (SETFA)): 90 |
| CNS(=O)(=O)[N-]C(=O)c1c[n+](C)nc2ccccc12 [Compound A10, 2-methyl-N-(methylsulfamoyl)cinnolin-2-ium-4-carboxamide] | 80 | 70 | 70 | 50 | 60 | 70 | 30 | 30 | 50 |  |
| O=P(O)(O)CCCc1c[n+](CCCP(=O)(O)O)nc2ccccc12 [Compound A82, 3-[2-(3-phosphonopropyl)cinnolin-2-ium-4-yl]propylphosphonic acid chloride] | 30 | 0 | 10 | 20 | 10 | 20 | 10 | 10 | 0 |  |
| C[n+]1cc(C(=O)[N-]S(=O)(=O)C2CC2)c2ccccc2n1 [Compound A12] | 60 | 60 | 20 | 30 | 30 | 70 | 70 | 40 | 60 |  |
| CCOP(=O)(Cc1c[n+](C)nc2ccccc12)OCC.[I-] [Compound A47, 4-(diethoxyphosphorylmethyl)-2-methyl-cinnolin-2-ium iodide] |  |  |  |  |  |  |  |  |  | Control of weed species after post-emergence application, AMAPA [1]: 60; Control of weed species after post-emergence application, CHEAL [2]: 70; Control of weed species after post-emergence application, DIGSA [3]: 40; Control of weed species after post-emergence application, ECHCG [4]: 30; Control of weed species after post-emergence application, ELEIN (Eleusine indica (ELEIN)): 50; Control of weed species after post-emergence application, EPHHL [5]: 30; Control of weed species after post-emergence application, IPOHE [6]: 20; Control of weed species after post-emergence application, LOLPE (Lolium perenne (LOLPE)): 10; Control of weed species after post-emergence application, SETFA (Setaria faberi (SETFA)): 40 |
| CCOP(=O)([O-])c1c[n+](C(C)C)nc2ccccc12 [Compound A77] |  |  |  |  |  |  |  |  |  | pest or weed control at 500 g/ha [1]: 100%; pest or weed control at 500 g/ha [2]: 90%; pest or weed control at 500 g/ha [3]: 90%; pest or weed control at 500 g/ha [4]: 50%; pest or weed control at 500 g/ha (Eleusine indica (ELEIN)): 100%; pest or weed control at 500 g/ha [5]: 80%; pest or weed control at 500 g/ha [6]: 90%; pest or weed control at 500 g/ha (Lolium perenne (LOLPE)): 30%; pest or weed control at 500 g/ha (Setaria faberi (SETFA)): 90% |
